# From patent publication US20080317857A1, “V-Atpase Inhibitors of Use in the Treatment of Septic Shock” (Brane Discovery S.r.l., priority 2005, published 2008)
# Legend:
# [1] = tested on: Lymphocytes; experiment: Chemotaxis assay, lymphocytes (transwell); format: cell-based; details: Homo sapiens, Lymphocyte
# Protocol: PMNs and monocytes migration was assessed using 1 or 3-μm pore size transwells (Bio-Coat Becton-Dickinson), while lymphocytes by using 5-μm pore size transwells.
# Cells were in RPMI1640, containing 10% heat-inactivated Fetal Calf Serum (FCS) and 20 mM HEPES, pH 7.3, at 2×10^6/ml. 100 μl of cell suspension were added to the top well, and 600 μl of medium, containing chemoaftractants and test compound, were added to the bottom well. Migration was evaluated after 2 h for PMNs and monocytes and after 4 h for lymphocytes. fMLP 10 nM (PMNs and monocytes) and MIP-3β 100 nM (lymphocytes) were utilized as chemoattractants. After fixation with 1.5% glutaraldehyde, migrated cells were counted by fluorescence-activated cell sorting using polystyrene beads (Polyscience) as an internal standard (Campbell J. J. et al. J. Cell. Biol. 134, 255-266, 1996; Laudanna C. et al. J. Biol. Chem. 273, 46, 30306-30315, 1998).
# Results are expressed as percentage of inhibition over control (=100%), and are the mean of three experiments.
# [2] = tested on: Monocytes; experiment: Chemoattractant-induced rapid adhesion of monocytes to fibrinogen; format: cell-based; details: Homo sapiens, Monocyte, read-out: Inhibition of Adhesion (%) Monocytes (fMLP)
# Protocol: Adhesion was performed on purified integrin ligands and was evaluated as reported in Constantin G. et al., Immunity, 16, 759-769, 2000. Briefly, primary naïve lymphocytes, polymorphonuclear neutrophils (PMNs) or monocytes were isolated form healthy donors. In other experiments, murine autoreactive T cells were obtained from SJL mice immunized with PLP139-151 as described (Piccio L. et al., J. Immunol. 168, 1940-1949, 2002). Cells were resuspended at 4×10^6/ml in PBS, CaCl2, MgCl2 1 mM, 10% FCS, pH 7.2. Adhesion assays were performed on eighteen well glass slides coated overnight at 4° C. with ligands for CR3 (fibrinogen) or LFA-1 (ICAM-1). 20 μl of cell suspension were added to the wells and stimulated at 37° C. with 5 μl of agonists prior to washing, fixation and computer-assisted enumeration of bound cells.
# Integrin activation was measured as induction of rapid adhesion triggered by the classical chemoattractant N-formyl-L-methionyl-L-leucyl-phenylalanine (fMLP) (100 nM) or by the CC chemokine MIP3β (CCL19, 1 μM). PMNs and monocytes were triggered to adhere to fibrinogen (CR3 ligand); naive human lymphocytes or murine encephalitogenic T cells were triggered to adhere to ICAM-1 (LFA-1 ligand). Triggered adhesion was evaluated after 2 min of stimulation under static conditions. The cells were pretreated at 37° C. for 30-60 min with the indicated concentrations of the test compound. Results are expressed as percentage of inhibition over control (=100%) and are the mean of three experiments in the case of human leukocytes. Results are expressed as mean counts and are the mean counts±S.D of three experiments and are the mean of three experiments in the case of murine encephalitogenic lymphocytes.
# [3] = tested on: murine encephalitogenic T lymphocytes in inflamed brain venules; experiment: Intravital microscopy: lymphocyte recruitment in inflamed brain microcirculation; format: in vivo, mice (SJL); details: cells treated with 50 μM for 1 h
# Protocol: Murine encephalitogenic T lymphocytes were labeled with either green CMFDA (5-chloromethylfluorescein diacetate; Molecular Probes) or orange CMTMR (5-(and-6)-(((4-chloromethyl)benzoyl)amino)tetramethylrhodamine) (Molecular Probes). SJL young females (Harlan-Nossan, Udine, Italy) were housed and used according to current European Community rules. In order to inflame brain endothelium, mice were injected intraperitoneally with 12 μg lipopolysaccharide (LPS) (Escherichia coli 026:B6; Sigma) 5 to 6 hours before the intravital experiment was started. […] Fluorescence-labeled cells (2×10^6)/condition were slowly injected into the carotid artery through a digital pump. Images were visualized by using a silicon-intensified target videocamera (VE-1000 SIT; Dage MTI, Michigan City, Ind.) and a Sony SSM-125CE monitor and were recorded using a digital videocassette recorder (NV-DV10000; Panasonic).
# Video analysis was performed by playback of digital videotapes. Vessel diameter (D), hemodynamic parameters, and the velocities of rolling were determined by using a personal computer-based system. The velocities of 20 or more consecutive freely flowing cells per venule were calculated.
# From the velocity of the fastest cell in each venule (Vfast), we calculated the mean blood flow velocities (Vm): […]. […]
smiles,measurement,setting,value
COC(=O)c1[nH]c2cc(OC)c(OC)cc2c1-c1ccc(OC)cc1 [Example 1],inhibition at 2.5 µM,"[1]; [cpd] 2.5 μM, read-out: Inhibition of Chemotaxis (%) Lymphocytes (MIP3-β)",11.6%
same,inhibition at 5 µM,"[1]; [cpd] 5 μM, read-out: Inhibition of Chemotaxis (%) Lymphocytes (MIP3-β) (converted)",27.2%
same,inhibition at 10 µM,"[1]; [cpd] 10 μM, read-out: Inhibition of Chemotaxis (%) Lymphocytes (MIP3-β) (converted)",43.2%
same,inhibition at 25 µM,"[1]; [cpd] 25 μM, read-out: Inhibition of Chemotaxis (%) Lymphocytes (MIP3-β) (converted)",53.3%
same,inhibition at 50 µM,"[1]; [cpd] 50 μM, read-out: Inhibition of Chemotaxis (%) Lymphocytes (MIP3-β) (converted)",63.5%
same,inhibition at 100 µM,"[1]; [cpd] 100 μM, read-out: Inhibition of Chemotaxis (%) Lymphocytes (MIP3-β) (converted)",86.9%
same,inhibition at 2.5 µM,[2]; [cpd] 2.5 μM,< 5%
same,inhibition at 5 µM,[2]; [cpd] 5 μM,< 5%
same,inhibition at 10 µM,[2]; [cpd] 10 μM,< 5%
same,inhibition at 25 µM,[2]; [cpd] 25 μM,< 5%
same,inhibition at 50 µM,[2]; [cpd] 50 μM,< 5%
same,inhibition at 100 µM,[2]; [cpd] 100 μM,< 5%
same,autoreactive lymphocyte rolling,[3],no effect
same,sticking/firm arrest,[3],highly blocked
